Experimental data reported in ChEMBL document CHEMBL6071138, “Design, synthesis, anti-tumor activity and mechanism of novel PROTACs as degraders of PD-L1 and inhibitors of PD-1/PD-L1 interaction” (Bioorg Med Chem, 2024).
Calls of active or inactive are those of the source. The rule behind the calls is not given here.

Experiments:
[1] = biological target: von Hippel-Lindau disease tumor suppressor/Programmed cell death 1 ligand 1 (Homo sapiens) (UniProt P40337+Q9NZQ7); assay: PROTAC activity at VHL/PD-L1 in human HCC827 cells assessed as induction of PD-L1 protein degradation incubated for 24 hrs by Western blot analysis; assay type: cell-based; settings: dose 0.25-10 µM
Chain of von Hippel-Lindau disease tumor suppressor/Programmed cell death 1 ligand 1 (Homo sapiens) (P40337 whole entry, looked up): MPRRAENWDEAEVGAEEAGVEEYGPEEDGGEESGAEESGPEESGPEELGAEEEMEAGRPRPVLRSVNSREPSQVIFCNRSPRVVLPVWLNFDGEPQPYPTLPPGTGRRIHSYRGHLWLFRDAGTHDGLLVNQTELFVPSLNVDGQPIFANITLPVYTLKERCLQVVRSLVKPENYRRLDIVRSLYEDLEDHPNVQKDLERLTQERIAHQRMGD
Chain of von Hippel-Lindau disease tumor suppressor/Programmed cell death 1 ligand 1 (Homo sapiens) (Q9NZQ7 whole entry, looked up): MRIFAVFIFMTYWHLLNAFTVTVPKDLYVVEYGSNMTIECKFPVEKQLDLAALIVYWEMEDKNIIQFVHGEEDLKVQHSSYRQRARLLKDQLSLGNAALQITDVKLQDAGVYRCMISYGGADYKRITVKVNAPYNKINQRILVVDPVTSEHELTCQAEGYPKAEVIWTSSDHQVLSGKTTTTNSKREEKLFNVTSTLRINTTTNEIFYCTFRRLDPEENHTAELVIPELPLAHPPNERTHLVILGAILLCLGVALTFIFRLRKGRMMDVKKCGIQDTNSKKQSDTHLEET

[2] = biological target: T1, Protein cereblon/Programmed cell death 1 ligand 1 (Homo sapiens) (UniProt Q9NZQ7+Q96SW2); assay: PROTAC activity at CRBN/PD-L1 in human HCC827 cells assessed as induction of PD-L1 protein degradation incubated for 24 hrs by Western blot analysis; assay type: cell-based; settings: dose 0.25-10 µM
T1 sequence (Q96SW2 whole entry, looked up): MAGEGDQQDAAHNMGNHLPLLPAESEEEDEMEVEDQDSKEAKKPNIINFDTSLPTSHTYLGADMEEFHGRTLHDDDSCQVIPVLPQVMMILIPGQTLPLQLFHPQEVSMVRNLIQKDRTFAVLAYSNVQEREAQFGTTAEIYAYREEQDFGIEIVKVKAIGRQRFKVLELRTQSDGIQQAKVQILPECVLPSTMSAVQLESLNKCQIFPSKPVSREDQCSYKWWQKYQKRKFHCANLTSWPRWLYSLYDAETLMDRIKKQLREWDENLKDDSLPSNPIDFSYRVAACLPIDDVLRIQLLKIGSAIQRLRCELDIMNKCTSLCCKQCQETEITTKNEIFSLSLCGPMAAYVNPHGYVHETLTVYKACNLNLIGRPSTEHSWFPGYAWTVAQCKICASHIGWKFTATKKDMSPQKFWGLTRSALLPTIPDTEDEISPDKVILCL
T1 sequence (Q9NZQ7 whole entry, looked up): as the sequence (Q9NZQ7 whole entry, looked up) above

HCC827 [3] = assay: Effect on PD-L1 protein expression in human HCC827 cells at 10 uM incubated for 24 hrs by Western blot analysis; assay type: functional, cell-based
[4] = Binding affinity to C-terminal fused with Fc region of human IgG1 recombinant human PD-L1 extracellular domain (1 to 239 residues) extracted from HEK293 cells assessed as dissociation constant by MST analysis; assay type: cell-free
[5] = biological target: T1, Protein cereblon/Programmed cell death 1 ligand 1 (Homo sapiens); assay: PROTAC activity at CRBN/PD-L1 in human HCC827 cells assessed as induction of PD-L1 protein degradation at 10 uM measured within 24 hrs by Western blot analysis relative to control; assay type: cell-based
[6] = biological target: T1, Protein cereblon/Programmed cell death 1 ligand 1 (Homo sapiens); assay: PROTAC activity at CRBN/PD-L1 in human SK-N-AS cells assessed as induction of PD-L1 protein degradation at 0.25 to 10 uM incubated for 24 hrs by Western blot analysis; assay type: cell-based; settings: dose 0.25-10 µM
[7] = biological target: T1, Protein cereblon/Programmed cell death 1 ligand 1 (Homo sapiens); assay: PROTAC activity at CRBN/PD-L1 in human 786-0 cells assessed as induction of PD-L1 protein degradation at 0.25 to 10 uM incubated for 24 hrs by Western blot analysis; assay type: cell-based; settings: dose 0.25-10 µM
[8] = biological target: Protein cereblon/Programmed cell death 1 ligand 1 (Mus musculus) (UniProt Q9EP73+Q8C7D2); assay: PROTAC activity at CRBN/PD-L1 in mouse MC38 cells assessed as induction of PD-L1 protein degradation at 0.25 to 10 uM incubated for 24 hrs by Western blot analysis; assay type: cell-based; settings: dose 0.25-10 µM
Chain of Protein cereblon/Programmed cell death 1 ligand 1 (Mus musculus) (Q8C7D2 whole entry partner): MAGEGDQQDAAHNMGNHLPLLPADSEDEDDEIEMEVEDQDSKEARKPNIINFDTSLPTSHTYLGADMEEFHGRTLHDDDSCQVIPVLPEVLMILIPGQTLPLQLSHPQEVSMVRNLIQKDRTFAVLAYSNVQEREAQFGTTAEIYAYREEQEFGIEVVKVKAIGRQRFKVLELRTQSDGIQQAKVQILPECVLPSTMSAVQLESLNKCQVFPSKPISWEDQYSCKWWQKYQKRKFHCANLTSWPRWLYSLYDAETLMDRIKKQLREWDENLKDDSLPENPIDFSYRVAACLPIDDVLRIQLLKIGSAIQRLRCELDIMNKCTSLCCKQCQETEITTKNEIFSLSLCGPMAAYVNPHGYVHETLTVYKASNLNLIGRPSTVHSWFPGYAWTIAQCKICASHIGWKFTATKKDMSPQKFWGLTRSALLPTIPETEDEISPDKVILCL
Chain of Protein cereblon/Programmed cell death 1 ligand 1 (Mus musculus) (Q9EP73 19-290 limits assumed): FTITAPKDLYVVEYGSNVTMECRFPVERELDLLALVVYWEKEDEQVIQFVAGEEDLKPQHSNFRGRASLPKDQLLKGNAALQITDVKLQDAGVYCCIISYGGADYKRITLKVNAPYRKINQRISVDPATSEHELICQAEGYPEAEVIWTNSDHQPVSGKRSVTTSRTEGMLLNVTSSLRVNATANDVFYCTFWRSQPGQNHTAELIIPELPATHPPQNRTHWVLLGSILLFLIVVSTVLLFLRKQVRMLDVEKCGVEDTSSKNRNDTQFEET

[9] = biological target: T1, Protein cereblon/Programmed cell death 1 ligand 1 (Homo sapiens); assay: PROTAC activity at CRBN/PD-L1 in human HCC827 cell membrane assessed as decrease in PD-L1 expression in membrane incubated for 24 hrs by flow cytometric analysis; assay type: cell membranes; settings: dose 2.5-10 µM
[10] = biological target: T1, Protein cereblon/Programmed cell death 1 ligand 1 (Homo sapiens); assay: PROTAC activity at CRBN/PD-L1 in human HCC827 cell membrane assessed as decrease in PD-L1 expression in membrane at 10 uM incubated for 24 hrs by Western blotting; assay type: cell membranes
[11] = biological target: T1, Protein cereblon/Programmed cell death 1 ligand 1 (Homo sapiens); assay: PROTAC activity at CRBN/PD-L1 in human HCC827 cell cytoplasm assessed as decrease in PD-L1 expression in cytoplasm at 10 uM incubated for 24 hrs by Western blotting; assay type: subcellular
[12] = biological target: T1, Protein cereblon/Programmed cell death 1 ligand 1 (Homo sapiens); assay: PROTAC activity at CRBN/PD-L1 in human HCC827 cells assessed as induction of PD-L1 internalization at cell membrane by measuring decrease in fluorescence intensity of cell membrane at 10 uM incubated for 12 to 24 hrs by DAPI immunostaining based confocal scanning microscopic analysis; settings: time 12-24 hrs
[13] = biological target: T1, Protein cereblon/Programmed cell death 1 ligand 1 (Homo sapiens); assay: PROTAC activity at CRBN/PD-L1 in human HCC827 cells assessed as induction of PD-L1 internalization at cell membrane by measuring increase in fluorescence intensity around nucleus at 10 uM incubated for 12 hrs by DAPI immunostaining based confocal scanning microscopic analysis
[14] = biological target: T1, Protein cereblon/Programmed cell death 1 ligand 1 (Homo sapiens); assay: PROTAC activity at CRBN/PD-L1 in human HCC827 cells assessed as induction of PD-L1 degradation at 10 uM preincubated with 5-((5-((2-chloro-2'-fluoro-[1,1'-biphenyl]-3-yl)methoxy)-2-(((2-hydroxyethyl)amino)methyl)phenoxy)methyl)nicotinonitrile for 4 hrs followed by compound addition and measured after 24 hrs by Western blotting; assay type: cell-based
[15] = biological target: T1, Protein cereblon/Programmed cell death 1 ligand 1 (Homo sapiens); assay: PROTAC activity at CRBN/PD-L1 in human HCC827 cells assessed as induction of PD-L1 degradation at 10 uM preincubated with MG132 for 4 hrs followed by compound addition and measured after 24 hrs by Western blotting; assay type: cell-based
[16] = biological target: T1, Protein cereblon/Programmed cell death 1 ligand 1 (Homo sapiens); assay: PROTAC activity at CRBN/PD-L1 in human HCC827 cells assessed as induction of PD-L1 degradation at 10 uM preincubated with pomalidomide for 4 hrs followed by compound addition and measured after 24 hrs by Western blotting; assay type: cell-based
[17] = biological target: T1, Protein cereblon/Programmed cell death 1 ligand 1 (Homo sapiens); assay: PROTAC activity at CRBN/PD-L1 in human HCC827 cells assessed as induction of PD-L1 degradation at 10 uM preincubated with bafilomycin A1 for 4 hrs followed by compound addition and measured after 24 hrs by Western blotting; assay type: cell-based
HCC827 [18] = assay: Antitumor activity against human HCC827 cells co-cultured with PMA-activated human Jurkat T cells assessed as T cell mediated tumor killing by measuring survival rate at 5 uM incubated for 24 hrs by CCK8 assay relative to control; assay type: functional; settings: read-out: Survival
MC-38 [19] = assay: Antitumor activity against mouse MC38 cells implanted in female C57BL/6 mouse model assessed as tumor growth inhibition at 10 mg/kg, ip administered once daily for 15 days relative to control; assay type: functional; settings: MC-38, 360 h, time 15 day, read-out: TGI
MC-38 [20] = assay: Antitumor activity against mouse MC38 cells implanted in female C57BL/6 mouse model assessed as tumor growth inhibition at 20 mg/kg, ip administered once daily for 15 days relative to control; assay type: functional; settings: MC-38, 360 h, time 15 day, read-out: TGI
[21] = Toxicity in female C57BL/6 mouse implanted with mouse MC38 cells assessed as effect on body weight at 10 to 20 mg/kg, ip administered once daily for 15 days; assay type: organism-based; settings: in vivo, 360 h, dose 10-20 mg/kg, time 15 day
Mus musculus [22] = assay: In vivo PROTAC activity at CRBN/PD-L1 in female C57BL/6 mouse implanted with mouse MC38 cells assessed as decrease in PD-L1 protein expression in tumor at 10 to 20 mg/kg, ip administered once daily for 15 days by hematoxylin staining based immunohistochemistry; assay type: functional, organism-based; settings: dose 10-20 mg/kg, time 15.0 day
Mus musculus [23] = assay: Immunoregulatory activity in female C57BL/6 mouse model implanted with mouse MC38 cells assessed as increase in CXCR3 mRNA level in tumor at 10 to 20 mg/kg, ip administered once daily for 15 days by qPCR analysis; assay type: functional, organism-based; settings: dose 10-20 mg/kg, time 15.0 day
Mus musculus [24] = assay: Immunoregulatory activity in female C57BL/6 mouse model implanted with mouse MC38 cells assessed as increase in CXCL9 mRNA level in tumor at 10 to 20 mg/kg, ip administered once daily for 15 days by qPCR analysis; assay type: functional, organism-based; settings: dose 10-20 mg/kg, time 15.0 day
Mus musculus [25] = assay: Immunoregulatory activity in female C57BL/6 mouse model implanted with mouse MC38 cells assessed as increase in CXCL10 mRNA level in tumor at 10 to 20 mg/kg, ip administered once daily for 15 days by qPCR analysis; assay type: functional, organism-based; settings: dose 10-20 mg/kg, time 15.0 day
Mus musculus [26] = assay: Immunoregulatory activity in female C57BL/6 mouse model implanted with mouse MC38 cells assessed as increase in CD8+/CD4+ ratio in tumor at 10 to 20 mg/kg, ip administered once daily for 15 days by flow cytometric analysis; assay type: functional, organism-based; settings: dose 10-20 mg/kg, time 15.0 day
Mus musculus [27] = assay: Immunoregulatory activity in female C57BL/6 mouse model implanted with mouse MC38 cells assessed as increase in CD8+/CD4+ ratio in lymph node at 10 to 20 mg/kg, ip administered once daily for 15 days by flow cytometric analysis; assay type: functional, organism-based; settings: dose 10-20 mg/kg, time 15.0 day
Mus musculus [28] = assay: Immunoregulatory activity in female C57BL/6 mouse model implanted with mouse MC38 cells assessed as increase in granzyme B expression at 10 to 20 mg/kg, ip administered once daily for 15 days by hematoxylin staining based immunohistochemistry; assay type: functional, organism-based; settings: dose 10-20 mg/kg, time 15.0 day
Mus musculus [29] = assay: Immunoregulatory activity in female C57BL/6 mouse model implanted with mouse MC38 cells assessed as increase in perforin expression at 10 to 20 mg/kg, ip administered once daily for 15 days by hematoxylin staining based immunohistochemistry; assay type: functional, organism-based; settings: dose 10-20 mg/kg, time 15.0 day
[30] = biological target: Programmed cell death protein 1/Programmed cell death 1 ligand 1 (Homo sapiens, UniProt Q9NZQ7); assay: Inhibition of human PD-1/PD-L1 interaction by HTRF assay; assay type: protein-complex assay
Chain of Programmed cell death protein 1/Programmed cell death 1 ligand 1 (Q15116 whole entry): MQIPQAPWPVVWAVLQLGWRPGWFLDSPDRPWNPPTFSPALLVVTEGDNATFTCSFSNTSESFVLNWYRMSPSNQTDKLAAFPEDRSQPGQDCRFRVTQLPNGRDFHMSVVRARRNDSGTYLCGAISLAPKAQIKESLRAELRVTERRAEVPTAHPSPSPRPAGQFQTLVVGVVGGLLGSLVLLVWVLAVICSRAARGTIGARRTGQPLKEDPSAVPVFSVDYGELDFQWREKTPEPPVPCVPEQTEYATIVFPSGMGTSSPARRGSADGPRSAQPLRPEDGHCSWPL
Chain of Programmed cell death protein 1/Programmed cell death 1 ligand 1 (Q9NZQ7 whole entry): as the sequence (Q9NZQ7 whole entry, looked up) above

[31] = biological target: T1, Protein cereblon/Programmed cell death 1 ligand 1 (Homo sapiens); assay: PROTAC activity at CRBN/PD-L1 in human HCC827 cells assessed as induction of PD-L1 protein degradation at 20 uM measured within 24 hrs by Western blot analysis relative to control; assay type: cell-based
HCC827 [32] = assay: Antitumor activity against human HCC827 cells co-cultured with PMA-activated human Jurkat T cells assessed as T cell mediated tumor killing by measuring survival rate at 10 uM incubated for 24 hrs by CCK8 assay relative to control; assay type: functional; settings: read-out: Survival

Compound: Cc1ncsc1-c1ccc([C@H](C)NC(=O)[C@@H]2C[C@@H](O)CN2C(=O)[C@@H](NC(=O)CCCNCc2ccc(OCc3cccc(-c4ccccc4F)c3Cl)cc2OCc2cncc(C#N)c2)C(C)(C)C)cc1
- Activity [1]: Dose-Dependent Effect

Compound: Cc1ncsc1-c1ccc([C@H](C)NC(=O)[C@@H]2C[C@@H](O)CN2C(=O)[C@@H](NC(=O)CCOCCOCCOCCOCCNCc2ccc(OCc3cccc(-c4ccccc4F)c3Cl)cc2OCc2cncc(C#N)c2)C(C)(C)C)cc1
- Activity [1]: Dose-Dependent Effect

Compound: N#Cc1cncc(COc2cc(OCc3cccc(-c4ccccc4F)c3Cl)ccc2CNCCCCCCCCNc2cccc3c2C(=O)N(C2CCC(=O)NC2=O)C3=O)c1 (stereo not given)
- Activity [2]: Dose-Dependent Effect

Compound: N#Cc1cncc(COc2cc(OCC3C=CC=C(c4ccccc4F)C3Cl)ccc2CNCCOCCOCCOCCOCCOCCOCCC(=O)Nc2cccc3c2CN(C2CCC(=O)NC2=O)C3=O)c1 (stereo not given)
- Activity [2]: Dose-Dependent Effect

Compound: Nc1cccc2c1C(=O)N(C1CCC(=O)NC1=O)C2=O (stereo not given)
- Activity (HCC827 [3]): inactive

Compound: N#Cc1cncc(COc2cc(OCc3cccc(-c4ccccc4F)c3Cl)ccc2CNCc2cn(CCCCCC(=O)Nc3cccc4c3CN(C3CCC(=O)NC3=O)C4=O)nn2)c1 (stereo not given)
- Activity [2]: Dose-Dependent Effect

Compound: N#Cc1cncc(COc2cc(OCc3cccc(-c4ccccc4F)c3Cl)ccc2CNCCO)c1
- Activity (HCC827 [3]): inactive
- Kd [4]: 20.2 nM

Compound: N#Cc1cncc(COc2cc(OCc3cccc(-c4ccccc4F)c3Cl)ccc2CNCCOCCOCCOCCNc2cccc3c2C(=O)N(C2CCC(=O)NC2=O)C3=O)c1 (stereo not given)
- Activity [2]: Dose-Dependent Effect
- Activity [5]: 58%
- Activity [6]: Active
- Activity [7]: Active
- Activity [8]: Active
- Activity [9]: Dose-Dependent Effect
- Activity [10]: Active
- Activity [11]: Active
- Activity [12]: Active
- Activity [13]: Active
- Activity [14]: inactive
- Activity [15]: inactive
- Activity [16]: inactive
- Activity [17]: inactive
- viability at 5 µM (HCC827 [18]): 73.2%
- inhibition in vivo at 10 mg/kg (MC-38 [19]): 34.6%
- inhibition in vivo at 20 mg/kg (MC-38 [20]): 54.9%
- Activity [21]: Non-Toxic
- Activity (Mus musculus [22]): Active
- Activity (Mus musculus [23]): Active
- Activity (Mus musculus [24]): Active
- Activity (Mus musculus [25]): Active
- Activity (Mus musculus [26]): Active
- Activity (Mus musculus [27]): Active
- Activity (Mus musculus [28]): Active
- Activity (Mus musculus [29]): Active
- IC50 [30]: 219 nM
- Kd [4]: 251 nM

Compound: N#Cc1cncc(COc2cc(OCc3cccc(-c4ccccc4F)c3Cl)ccc2CNCCCCCNc2cccc3c2C(=O)N(C2CCC(=O)NC2=O)C3=O)c1 (stereo not given)
- Activity [2]: Dose-Dependent Effect

Compound: N#Cc1cncc(COc2cc(OCc3cccc(-c4ccccc4F)c3Cl)ccc2CNCCOCCOCCNc2cccc3c2C(=O)N(C2CCC(=O)NC2=O)C3=O)c1 (stereo not given)
- Activity [2]: Dose-Dependent Effect
- Activity [31]: 60.9%
- Activity [6]: Active
- Activity [7]: Active
- Activity [8]: Active
- Activity [9]: Dose-Dependent Effect
- Activity [10]: Active
- Activity [11]: Active
- Activity [12]: Active
- Activity [13]: Active
- Activity [14]: inactive
- Activity [15]: inactive
- Activity [16]: inactive
- Activity [17]: inactive
- viability at 10 µM (HCC827 [32]): 50.6%
- inhibition in vivo at 10 mg/kg (MC-38 [19]): 48.7%
- inhibition in vivo at 20 mg/kg (MC-38 [20]): 57.4%
- Activity [21]: Non-Toxic
- Activity (Mus musculus [22]): Active
- Activity (Mus musculus [23]): Active
- Activity (Mus musculus [24]): Active
- Activity (Mus musculus [25]): Active
- Activity (Mus musculus [26]): Active
- Activity (Mus musculus [27]): Active
- Activity (Mus musculus [28]): Active
- Activity (Mus musculus [29]): Active
- IC50 [30]: 197 nM
- Kd [4]: 301 nM
